Article PMC3092815 (Proteins, 2011)

Experiments:
[1] = target: T1, C. perfringens PepcA (archaeal-type phosphoenolpyruvate carboxylase) (Clostridium perfringens, UniProt Q8XLE8); assay: biochemical
[2] = target: T1, C. perfringens PepcA (archaeal-type phosphoenolpyruvate carboxylase)

| Compound | Ki [1] [µM] | Km [2] [µM] |
| --- | --- | --- |
| N[C@@H](CC(=O)O)C(=O)O [aspartate] | 200 |  |
| Mg^++.PEP |  | 60 |
